Measured values published in the CheMixHub ionic liquid set.
± gives the uncertainty stated by the source.

Test: xn = mol fraction of the nth substance listed

C=Cn1cc[n+](CCCC)c1.NCC(=O)[O-] + O
101.3 kPa
Details | electrical conductivity [S/m] | viscosity [mPa·s]
293.15 K, x1 = 0.5 | – | 59.3 ± 1.1
293.15 K, x1 = 0.9 | – | 1599 ± 560
303.15 K, x1 = 0.5 | 2.58 ± 0.038 | 43.4 ± 1
303.15 K, x1 = 1 | 0.009 ± 0.002 | 9300
308.15 K, x1 = 0.1 | 1.11 ± 0.051 | –
308.15 K, x1 = 0.7 | 1.99 ± 0.22 | –
308.15 K, x1 = 0.9 | 0.48 ± 0.079 | –
308.15 K, x1 = 1 | 0.012 ± 0.002 | –
318.15 K, x1 = 0.5 | 3.58 ± 0.074 | –
333.15 K, x1 = 0.3 | – | 10.48 ± 0.25
333.15 K, x1 = 1 | – | 1753 ± 630
343.15 K, x1 = 0.3 | – | 10.08 ± 0.24
343.15 K, x1 = 1 | – | 1089 ± 340
353.15 K, x1 = 0.5 | – | 21.66 ± 0.52
353.15 K, x1 = 0.9 | – | 520 ± 120
353.15 K, x1 = 1 | – | 730 ± 200

CC(=O)[O-].CCOCCn1cc[n+](C)c1 + O
100 kPa
Details | electrical conductivity [S/m] | viscosity [mPa·s]
293.15 K, x1 = 0.9129 | 0.288 ± 0.02 | 35.75 ± 0.38
293.15 K, x1 = 0.9447 | 0.25 ± 0.02 | 36.71 ± 0.39
298.15 K, x1 = 0.9447 | 0.31 ± 0.02 | 28.98 ± 0.33
303.15 K, x1 = 0.9447 | 0.394 ± 0.02 | 23.12 ± 0.29
308.15 K, x1 = 0.8821 | 0.586 ± 0.02 | 17.7 ± 0.26
313.15 K, x1 = 0.8524 | 0.764 ± 0.02 | 14.07 ± 0.24
313.15 K, x1 = 0.8821 | 0.719 ± 0.02 | 14.45 ± 0.24
313.15 K, x1 = 1 | 0.568 ± 0.02 | 15.8 ± 0.24

CC(=O)[O-].COCCn1cc[n+](C)c1 + O
100 kPa
Details | electrical conductivity [S/m] | viscosity [mPa·s]
293.15 K, x1 = 0.8395 | 0.408 ± 0.02 | 54.79 ± 0.47
293.15 K, x1 = 0.8942 | 0.338 ± 0.02 | 58.87 ± 0.55
303.15 K, x1 = 0.8942 | 0.495 ± 0.02 | 32.66 ± 0.49
308.15 K, x1 = 0.8659 | 0.636 ± 0.02 | 25.93 ± 0.45
318.15 K, x1 = 0.8659 | 0.925 ± 0.02 | 17.73 ± 0.42

CCC(=O)[O-].OCC[NH2+]c1ccccc1 + O
303.15 K, 100 kPa
Details | electrical conductivity [S/m]
x2 = 0.01476 | 0.000353 ± 1.4e-05
x2 = 0.03394 | 0.000354 ± 1.4e-05
x2 = 0.0417 | 0.000355 ± 1.4e-05
x2 = 0.05414 | 0.000356 ± 1.4e-05

CCCC(=O)[O-].OCC[NH2+]c1ccccc1 + O
303.15 K, 100 kPa
Details | electrical conductivity [S/m]
x2 = 0.0163 | 0.000469 ± 1.9e-05
x2 = 0.03811 | 0.00047 ± 1.9e-05
x2 = 0.05476 | 0.000471 ± 1.9e-05
x2 = 0.07271 | 0.000472 ± 1.9e-05

CCCCC(CC)COC(=O)CC(C(=O)OCC(CC)CCCC)S(=O)(=O)[O-].CCCC[n+]1ccn(C)c1 (stereo not drawn) + O
99.6 kPa, x1 = 0.8687
Details | viscosity [mPa·s]
293.15 K | 3442 ± 210
303.15 K | 1454 ± 77

CCCCCCCCCCCCCCCC[N+](C)(C)C.[Br-] + O
Details | viscosity [mPa·s]
298.15 K, 100 kPa, x1 = 7.21e-06 | 0.896 ± 0.06
298.15 K, 100 kPa, x1 = 2.162e-05 | 0.9 ± 0.06
298.15 K, 100 kPa, x1 = 7.207e-05 | 0.8804 ± 0.0087
298.15 K, 101 kPa, x1 = 1.46e-05 | 0.905
298.15 K, 101 kPa, x1 = 1.64e-05 | 0.9071
298.15 K, 101 kPa, x1 = 1.802e-05 | 0.9069
298.15 K, 101 kPa, x1 = 3.622e-05 | 0.9141
298.15 K, 101 kPa, x1 = 5.496e-05 | 0.9181
298.15 K, 101 kPa, x1 = 6.937e-05 | 0.9203
298.15 K, 101 kPa, x1 = 9.225e-05 | 0.9267
298.15 K, 101 kPa, x1 = 0.0001067 | 0.933
298.15 K, 101 kPa, x1 = 0.0001193 | 0.9362
298.15 K, 101 kPa, x1 = 0.0001429 | 0.9436
298.15 K, 101 kPa, x1 = 0.0001602 | 0.9481
298.15 K, 101 kPa, x1 = 0.0001802 | 0.9511
298.15 K, 101 kPa, x1 = 0.0002057 | 0.9556
298.15 K, 101 kPa, x1 = 0.000211 | 0.9553
298.15 K, 101 kPa, x1 = 0.000245 | 0.9662
298.15 K, 101 kPa, x1 = 0.0002573 | 0.9651
298.15 K, 101 kPa, x1 = 0.0002724 | 0.9675
303.15 K, 100 kPa, x1 = 7.207e-05 | 0.7984 ± 0.0084
308.15 K, 100 kPa, x1 = 7.21e-06 | 0.742 ± 0.06
308.15 K, 100 kPa, x1 = 2.162e-05 | 0.745 ± 0.06
308.15 K, 100 kPa, x1 = 7.207e-05 | 0.7583 ± 0.0083

298.15 K, 101 kPa, frequency 0.001 MHz
Details | electrical conductivity [S/m]
x1 = 1.09e-06 | 0.001 ± 0.0001
x1 = 2.34e-06 | 0.00165 ± 0.00016
x1 = 3.39e-06 | 0.00255 ± 0.00026
x1 = 4.43e-06 | 0.00305 ± 0.0003
x1 = 5.57e-06 | 0.00366 ± 0.00037
x1 = 6.72e-06 | 0.00441 ± 0.00044
x1 = 7.97e-06 | 0.00511 ± 0.00051
x1 = 8.91e-06 | 0.00577 ± 0.00058
x1 = 1.12e-05 | 0.00697 ± 0.0007
x1 = 1.213e-05 | 0.00757 ± 0.00076
x1 = 1.307e-05 | 0.00823 ± 0.00082
x1 = 1.411e-05 | 0.00873 ± 0.00087
x1 = 1.526e-05 | 0.00943 ± 0.00094
x1 = 1.63e-05 | 0.00978 ± 0.00098
x1 = 1.734e-05 | 0.0102 ± 0.001
x1 = 1.922e-05 | 0.0105 ± 0.0011
x1 = 1.995e-05 | 0.0108 ± 0.0011
x1 = 2.172e-05 | 0.0111 ± 0.0011
x1 = 2.276e-05 | 0.0113 ± 0.0011
x1 = 2.443e-05 | 0.0115 ± 0.0012
x1 = 2.599e-05 | 0.0117 ± 0.0012
x1 = 2.734e-05 | 0.012 ± 0.0012
x1 = 2.859e-05 | 0.0122 ± 0.0012

CCCCCCCCCCCCCCCC[n+]1ccccc1.[Br-] + O
100 kPa, x1 = 9.009e-05
Details | electrical conductivity [S/m]
298.15 K | 0.021 ± 0.001
303.15 K | 0.021 ± 0.001
308.15 K | 0.022 ± 0.001
313.15 K | 0.024 ± 0.001

CCCCCCCCCCCCCCCC[n+]1ccccc1.[Cl-] + O
Details | electrical conductivity [S/m]
293.15 K, 100 kPa, x1 = 3.6e-06 | 0.0028 ± 0.0012
293.15 K, 100 kPa, x1 = 7.21e-06 | 0.005 ± 0.0012
293.15 K, 100 kPa, x1 = 1.442e-05 | 0.0091 ± 0.0011
298.15 K, 100 kPa, x1 = 3.6e-06 | 0.0028 ± 0.0013
298.15 K, 100 kPa, x1 = 7.21e-06 | 0.0051 ± 0.0013
298.15 K, 100 kPa, x1 = 1.081e-05 | 0.0076 ± 0.0013
298.15 K, 100 kPa, x1 = 1.442e-05 | 0.0098 ± 0.0011
298.15 K, 100 kPa, x1 = 9.009e-05 | 0.02 ± 0.001
303.15 K, 100 kPa, x1 = 3.6e-06 | 0.003 ± 0.0013
303.15 K, 100 kPa, x1 = 7.21e-06 | 0.0057 ± 0.0013
303.15 K, 100 kPa, x1 = 1.081e-05 | 0.0083 ± 0.0013
303.15 K, 100 kPa, x1 = 9.009e-05 | 0.021 ± 0.001
308.15 K, 100 kPa, x1 = 3.6e-06 | 0.0034 ± 0.0014
308.15 K, 100 kPa, x1 = 7.21e-06 | 0.0065 ± 0.0014
308.15 K, 100 kPa, x1 = 1.081e-05 | 0.0095 ± 0.0014
308.15 K, 101 kPa, x1 = 5.4e-07 | 0.000222 ± 2e-06
308.15 K, 101 kPa, x1 = 9e-07 | 0.00029 ± 3e-06
308.15 K, 101 kPa, x1 = 1.62e-06 | 0.0004 ± 4e-06
308.15 K, 101 kPa, x1 = 2.34e-06 | 0.000465 ± 5e-06
308.15 K, 101 kPa, x1 = 2.88e-06 | 0.000581 ± 6e-06
308.15 K, 101 kPa, x1 = 3.78e-06 | 0.000705 ± 7e-06
308.15 K, 101 kPa, x1 = 4.5e-06 | 0.000794 ± 8e-06
308.15 K, 101 kPa, x1 = 5.59e-06 | 0.000937 ± 9e-06
308.15 K, 101 kPa, x1 = 6.85e-06 | 0.00106 ± 1.1e-05
308.15 K, 101 kPa, x1 = 7.93e-06 | 0.001222 ± 1.2e-05
308.15 K, 101 kPa, x1 = 9.01e-06 | 0.001438 ± 1.4e-05
308.15 K, 101 kPa, x1 = 1.009e-05 | 0.00159 ± 1.6e-05
308.15 K, 101 kPa, x1 = 1.117e-05 | 0.001701 ± 1.7e-05
308.15 K, 101 kPa, x1 = 1.333e-05 | 0.00209 ± 2.1e-05
308.15 K, 101 kPa, x1 = 1.55e-05 | 0.00219 ± 2.2e-05
308.15 K, 101 kPa, x1 = 1.766e-05 | 0.00237 ± 2.4e-05
308.15 K, 101 kPa, x1 = 1.982e-05 | 0.00248 ± 2.5e-05
308.15 K, 101 kPa, x1 = 2.18e-05 | 0.00259 ± 2.6e-05
308.15 K, 101 kPa, x1 = 2.397e-05 | 0.00264 ± 2.6e-05
308.15 K, 101 kPa, x1 = 2.595e-05 | 0.00278 ± 2.8e-05
308.15 K, 101 kPa, x1 = 3.009e-05 | 0.00297 ± 3e-05
308.15 K, 101 kPa, x1 = 3.406e-05 | 0.00314 ± 3.1e-05
308.15 K, 101 kPa, x1 = 3.802e-05 | 0.00328 ± 3.3e-05
308.15 K, 101 kPa, x1 = 4.18e-05 | 0.00342 ± 3.4e-05
308.15 K, 101 kPa, x1 = 4.559e-05 | 0.00356 ± 3.6e-05
308.15 K, 101 kPa, x1 = 4.919e-05 | 0.00369 ± 3.7e-05
308.15 K, 101 kPa, x1 = 5.099e-05 | 0.00375 ± 3.8e-05
308.15 K, 101 kPa, x1 = 6e-05 | 0.00403 ± 4e-05
308.15 K, 101 kPa, x1 = 6.847e-05 | 0.00432 ± 4.3e-05
308.15 K, 101 kPa, x1 = 7.658e-05 | 0.00454 ± 4.5e-05
308.15 K, 101 kPa, x1 = 8.433e-05 | 0.00477 ± 4.8e-05
308.15 K, 101 kPa, x1 = 9.189e-05 | 0.00497 ± 5e-05
308.15 K, 101 kPa, x1 = 9.91e-05 | 0.00516 ± 5.2e-05
308.15 K, 101 kPa, x1 = 0.000106 | 0.00533 ± 5.3e-05
308.15 K, 101 kPa, x1 = 0.0001126 | 0.0055 ± 5.5e-05
313.15 K, 100 kPa, x1 = 9.009e-05 | 0.023 ± 0.001

CCCCCCCCCCCCCC[P+](CCCCCC)(CCCCCC)CCCCCC.[Br-] + O
100 kPa, x2 = 0.68
Details | viscosity [mPa·s]
303.15 K | 180.5 ± 3.2
353.15 K | 22.85 ± 0.18
